In patent US20120165403A1, “METHODS OF INHIBITING THE ACTIVITY OF HSP90 AND/OR ARYL HYDROCARBON RECEPTOR” (UNIVERSITY OF ROCHESTER, priority 2004, published 2012):

System: chicken hsp90
Experiment: Affinity chromatography on EGCG-conjugated Sepharose, hsp90 point and truncation mutants
Assay type: binding
Excerpt: Murine AhR and ARNT cDNA (obtained from J. Whitlock and O. Hankinson, respectively) were inserted into pcDNA3 (Invitrogen, Carlsbad, Calif.). Chicken hsp90 constructs (FIG. 5), c90711hsp (wild-type), c90G94D (wild-type point mutant gly94→Asp (Grenert et al., J. Biol. Chem. 272:23843-23850 (1997), which is hereby incorporated by reference in its entirety), c90D92A (wild-type point mutant Asp92→Ala (Sullivan et al., J. Biol. Chem. 268:20373-20379 (1993), which is hereby incorporated by reference in its entirety), c90N221 (wild-type truncation mutant encoding a.a. 221-728 (Sullivan et al., J. Biol. Chem. 268:20373-20379 (1993), which is hereby incorporated by reference in its entirety)), c90N303 (a.a. 303-728) and c90N538 (a.a. 538-728) were kind gifts from Dr. D. Toft (Rochester, Minn.). The C-terminal truncation mutant c900507 (a.a. 1-221) was obtained from Dr. L. Neckers (Rockville, Md.) (Grenert et al., J. Biol. Chem. 272:23843-23850 (1997); Marcu et al., J. Biol. Chem. 275:37181-37186 (2000), which are hereby incorporated by reference in their entirety). Human p23 cDNA was excised from pQE80-p23 (obtained from W. Chan Stockton, Calif.) by sequential digests using the restriction enzymes Sad (3′-end) and BamHI (5′-end) and inserted into the similarly digested pET28a (Novagen, Madison, Wis.). The mouse histidine-tagged XAP2 construct, pET-AIP (Bell et al., J. Biol. Chem. 275:36407-36414 (2000), which is hereby incorporated by reference in its entirety), was a kind gift from Dr. D. Bell (Nottingham, UK). All constructs are in the T7 orientation with the exception of c900507, which is driven by an SP6 promoter.
AhR, ARNT, hsp90 (wild-type, point mutants, and truncation mutants), p23, and XAP2 were generated (separately) by coupled transcription/translation in rabbit reticulocyte lysate (RRL) using the TNT® system according to the manufacturer's protocol (Promega, Madison Wis.). In this system, ^35S-methionine was included in the transcription/translation mix to generate ^35S-labeled protein.
EGCG was conjugated to cyanogen bromide (CNBr)-activated Sepharose (Sigma). […]

O=C(O[C@@H]1Cc2c(O)cc(O)cc2O[C@@H]1c1cc(O)c(O)c(O)c1)c1cc(O)c(O)c(O)c1 [EGCG, epigallocatechin gallate]
binding of C-terminal hsp90 fragments (all C-terminal fragments (N221, N303, N538)): bound EGCG
binding of N-terminal point mutants D92A, G94D to EGCG-Sepharose (compared with wild type hsp90): bound to EGCG-Sepharose as well as or better than the wild type hsp90
binding of amino-terminal hsp90 fragment C507 to immobilized EGCG (fragment containing the GA binding site): failed to bind to immobilized EGCG
